Patent US6121287A, “Quinoline derivatives” (Active Biotech AB, priority 1999, dated 2000)
Like-named read-outs stand apart in the source and are kept apart here.

Assays:
[1] = tested on: acute experimental autoimmune encephalomyelitis (aEAE); assay: inhibition of acute experimental autoimmune encephalomyelitis (aEAE) in mice; type: in vivo, mice (STUN female); details: for % aEAE Inhibition: percent inhibition of clinical scores vs saline treated controls
[2] = tested on: foetuses of pregnant female rats; assay: Teratogenic Effects in the Rat; type: in vivo; details: 6 mg/kg/day (dose given for the N-methyl-N-phenyl compound), subcutaneous, day 8 to 14 of pregnancy
Text: Teratogenic Effects in the Rat
The compounds were administrated subcutaneously to female rats during pregnancy, i.e., day 8 to 14 of pregnancy. The rats were caesarean sectioned and necropsied on day 20 after fertilization. The foetuses were examined for external and internal abnormalities.

[3] = tested on: foetuses of pregnant female rats; details: rat; background statement; cited from earlier work
beagle dogs = details: different breeds of beagle dogs; cited from earlier work
multiple sclerosis = details: cited from earlier work
cell-mediated immunity = details: cited from earlier work

Structure (SMILES)	% aEAE Inhibition ([1]; 0.04 mg/kg p.o.)	% aEAE Inhibition ([1]; 0.2 mg/kg p.o.)	teratogenic effect [2]	% aEAE Inhibition ([1]; 1 mg/kg p.o.)	also measured
CCN(C(=O)c1c(O)c2c(SC)cccc2n(C)c1=O)c1ccccc1 [Compound A, N-ethyl-N-phenyl-1,2-dihydro-4-hydroxy-5-thiomethyl-1-methyl-2-oxo-quinoline-3-carboxamide]	28%	49%	non-teratogenic		
CSc1cccc2c1c(O)c(C(=O)N(C)c1ccc(F)cc1F)c(=O)n2C [Compound B, N-methyl-N-(2,4-difluoro-phenyl)-1,2-dihydro-4-hydroxy-5-thiomethyl-1-methyl-2-oxo-quinoline-3-carboxamide]		67%	non-teratogenic	97%	
CCN(C(=O)c1c(O)c2cc(SC)ccc2n(C)c1=O)c1ccccc1 [Compound C, N-ethyl-N-phenyl-1,2-dihydro-4-hydroxy-6-thiomethyl-1-methyl-2-oxo-quinoline3-carboxamide]	0%	23%			
CSc1ccc2c(c1)c(O)c(C(=O)N(C)c1ccc(F)cc1F)c(=O)n2C [Compound D, N-methyl-N-(2,4difluoro-phenyl)-l,2-dihydro-4-hydroxy-6-thiomethyl-1-methyl-2-oxo-quinoline-3-carboxamide]		0%		66%	
CSc1cccc2c1c(O)c(C(=O)N(C)c1ccccc1)c(=O)n2C [N-methyl-N-phenyl-1,2-dihydro-4-hydroxy-5-thiomethyl-1-methyl-2-oxo-quinoline-3-carboxamide]			teratogenic		
CN(C(=O)c1c(O)c2ccccc2n(C)c1=O)c1ccccc1 [Roquinimex, roquinimex]					inhibition of aEAE (treatment control) ([1]; at ≥5 mg/kg, mice): more than 50%; teratogenic effect [3]: teratogenic in the rat; Beagle Pain Syndrome (BPS) induction (beagle dogs): induce the Beagle Pain Syndrome (BPS); clinical efficacy in conditions associated with MS (multiple sclerosis; clinical trials comparing roquinimex to placebo): hold promise in the treatment of conditions associated with MS; dose-limiting side effects in man (multiple sclerosis; man): induces dose-limiting side effects in man, e.g., a flu-like syndrome; immunomodulatory activities (cell-mediated immunity): multiple immunomodulatory activities not accompanied with general immunosuppression
